Data from patent US20230212171A1, “ALLOSTERIC EGFR INHIBITORS AND METHODS OF USE THEREOF” (Dana-Farber Cancer Institute, Inc., priority 2020, published 2023).
Where a name gives a salt, the structure may show the parent alone.

Tests used:
EGFR L858R/T790M = EGFR L858R/T790M (Homo sapiens, UniProt P00533, L858R/T790M); assay: HTRF-based EGFR biochemical assay (L858R/T790M); settings: enzyme 0.02 nM, ATP 100 µM, 30 min preincubation
Method: (§1) EGFR biochemical activity measurements were carried out using the homogeneous time-resolved fluorescence (HTRF) assay (Cisbio). Inhibitors and DMSO normalizations were first dispensed to empty black low-volume 384-well plates (Corning) with D300 digital liquid dispenser (HP). All reactions were carried out at room temperature and solutions were added to plates with a Multidrop Combi Reagent Dispenser (ThermoFisher). The reaction mixture (10 µL final volume) contained 1 µM tyrosine kinase peptide-biotin substrate and mutant EGFR in a reaction buffer (50 mM HEPES pH 7.0, 5 mM MgCl2, 1 mM MnCl2, 0.01% BSA, 2 mM TCEP, 0.1 mM NaVO4). Enzyme concentrations were adjusted to accommodate varying kinase activities (L858R 0.1 nM, L858R/T790M 0.02 nM). Enzyme reaction solution (2× concentrations, 5 µL) was added to 384-well plates containing compounds and incubated for 30 mins. Enzyme reactions were initiated with the addition of 5 µL of ATP to a final concentration of 100 µM and reacted for 20 mins. Reactions were quenched with the addition of 10 µL of phospho-tyrosine antibody-Europium(III) cryptate (1-to-180 volume ratio) and Streptavidin-XL665 (46.7 nM) in EDTA-containing detection buffer, then incubated at room temperature for 1 hour, and read with a PHERAstar plate reader (excitation = 337 nm, emission = 620 nm and 665 nm). IC50 values were determined by inhibition curves (11-point curves from 1.0 µM to 0.130 nM or 23-point curves from 1.0 µM to 0.130 pM) in triplicate with non-linear least squares fit in GraphPad Prism 7.0d.

EGFR L858R = EGFR L858R (Homo sapiens, UniProt P00533, L858R); assay: HTRF-based EGFR biochemical assay (L858R); settings: enzyme 0.1 nM, ATP 100 µM, 30 min preincubation
Method: as §1

[1] = molecular target: EGFR mutant L858R/T790M Ba/F3 cells (Homo sapiens, UniProt P00533, T790M/L858R, cells depend on it); assay: Ba/F3 cell proliferation model (Cell Titer Glo), EGFR L858R/T790M; format: cell-based, murine; settings: single agent, 72 hours; read-out: Cell IC50 BaF3 EGFR L858R/T790M
Excerpt: (§2) The EGFR mutant L858R and L858R/T790M Ba/F3 cells have been previously described (Zhou, W., et al. Nature 462, 2009, 1070-1074). All cell lines were maintained in RPMI 1640 (Cellgro; Mediatech Inc., Herndon, CA) supplemented with 10% FBS, 100 units/mL penicillin, 100 units/mL streptomycin. The EGFR I941R mutation was introduced via site directed mutagenesis using the Quick Change Site-Directed Mutagenesis kit (Stratagene; La Jolla, CA) according to the manufacturer’s instructions. All constructs were confirmed by DNA sequencing. The constructs were shuttled into the retroviral vector JP1540 using the Cre-recombination system (Agilent Technologies, Santa Clara, CA). Ba/F3 cells were then infected with retrovirus per standard protocols, as described previously (Zhou, et al, Nature 2009). Stable clones were obtained by selection in puromycin (2 µg/ml).
(§3) Growth and inhibition of growth was assessed by the Cell Titer Glo assay (Promega, Madison, WI) and was performed according to the manufacturer’s instructions. The Cell Titer Glo assay is a luminescence-based method used to determine the number of viable cells based on quantitation of the ATP present, which is directly proportional to the amount of metabolically active cells present. Ba/F3 cells of different EGFR genotypes were exposed to compounds as a single agent or in combination with 1 µg/mL cetuximab for 72 hours and the number of cells used per experiment was determined empirically as has been previously established (Zhou, et al., Nature 2009). All experimental points were set up in triplicates in 384-well plates and all experiments were repeated at least three times. […] The curves were fitted using a non-linear regression model with a sigmoidal dose response.

[2] = molecular target: EGFR mutant L858R Ba/F3 cells (Homo sapiens, UniProt P00533, L858R, cells depend on it); assay: Ba/F3 cell proliferation model (Cell Titer Glo), EGFR L858R; format: cell-based, murine; settings: single agent, 72 hours; read-out: Cell ICso BaF3 EGFR L858R
Excerpt: as §2, §3

EGFR L858R/T790M, sequence (P00533 25-1210 T790M/L858R): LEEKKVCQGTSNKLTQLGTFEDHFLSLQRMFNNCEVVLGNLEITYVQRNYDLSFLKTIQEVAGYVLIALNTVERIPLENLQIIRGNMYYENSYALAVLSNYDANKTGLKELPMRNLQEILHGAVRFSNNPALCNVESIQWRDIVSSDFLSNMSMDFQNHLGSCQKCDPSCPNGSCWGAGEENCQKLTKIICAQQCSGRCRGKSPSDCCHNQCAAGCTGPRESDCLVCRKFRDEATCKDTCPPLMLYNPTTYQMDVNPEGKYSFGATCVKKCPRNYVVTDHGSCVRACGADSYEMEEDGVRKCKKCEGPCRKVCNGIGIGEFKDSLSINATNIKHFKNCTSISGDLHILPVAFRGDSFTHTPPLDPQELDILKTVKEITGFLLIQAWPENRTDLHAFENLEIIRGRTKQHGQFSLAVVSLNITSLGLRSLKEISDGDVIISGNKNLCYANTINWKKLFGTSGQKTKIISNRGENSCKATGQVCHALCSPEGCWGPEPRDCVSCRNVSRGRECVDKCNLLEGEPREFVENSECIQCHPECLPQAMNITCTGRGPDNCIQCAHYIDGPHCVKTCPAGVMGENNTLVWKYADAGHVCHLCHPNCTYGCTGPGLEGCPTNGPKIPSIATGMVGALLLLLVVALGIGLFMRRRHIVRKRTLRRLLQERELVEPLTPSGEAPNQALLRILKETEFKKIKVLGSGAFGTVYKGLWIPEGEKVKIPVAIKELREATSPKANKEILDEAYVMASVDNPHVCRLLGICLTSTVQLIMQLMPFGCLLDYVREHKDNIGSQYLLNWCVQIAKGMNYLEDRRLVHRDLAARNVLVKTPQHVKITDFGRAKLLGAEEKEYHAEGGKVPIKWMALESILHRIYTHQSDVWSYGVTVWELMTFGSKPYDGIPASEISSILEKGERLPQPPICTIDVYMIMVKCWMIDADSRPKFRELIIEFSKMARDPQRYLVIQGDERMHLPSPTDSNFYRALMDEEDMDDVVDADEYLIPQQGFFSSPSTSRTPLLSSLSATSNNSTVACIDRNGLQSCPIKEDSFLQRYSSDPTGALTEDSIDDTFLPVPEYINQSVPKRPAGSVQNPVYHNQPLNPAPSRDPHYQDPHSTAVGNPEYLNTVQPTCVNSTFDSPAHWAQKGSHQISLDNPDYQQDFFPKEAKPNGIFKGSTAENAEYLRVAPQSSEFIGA
EGFR mutant L858R/T790M Ba/F3 cells, sequence (P00533 whole entry T790M/L858R): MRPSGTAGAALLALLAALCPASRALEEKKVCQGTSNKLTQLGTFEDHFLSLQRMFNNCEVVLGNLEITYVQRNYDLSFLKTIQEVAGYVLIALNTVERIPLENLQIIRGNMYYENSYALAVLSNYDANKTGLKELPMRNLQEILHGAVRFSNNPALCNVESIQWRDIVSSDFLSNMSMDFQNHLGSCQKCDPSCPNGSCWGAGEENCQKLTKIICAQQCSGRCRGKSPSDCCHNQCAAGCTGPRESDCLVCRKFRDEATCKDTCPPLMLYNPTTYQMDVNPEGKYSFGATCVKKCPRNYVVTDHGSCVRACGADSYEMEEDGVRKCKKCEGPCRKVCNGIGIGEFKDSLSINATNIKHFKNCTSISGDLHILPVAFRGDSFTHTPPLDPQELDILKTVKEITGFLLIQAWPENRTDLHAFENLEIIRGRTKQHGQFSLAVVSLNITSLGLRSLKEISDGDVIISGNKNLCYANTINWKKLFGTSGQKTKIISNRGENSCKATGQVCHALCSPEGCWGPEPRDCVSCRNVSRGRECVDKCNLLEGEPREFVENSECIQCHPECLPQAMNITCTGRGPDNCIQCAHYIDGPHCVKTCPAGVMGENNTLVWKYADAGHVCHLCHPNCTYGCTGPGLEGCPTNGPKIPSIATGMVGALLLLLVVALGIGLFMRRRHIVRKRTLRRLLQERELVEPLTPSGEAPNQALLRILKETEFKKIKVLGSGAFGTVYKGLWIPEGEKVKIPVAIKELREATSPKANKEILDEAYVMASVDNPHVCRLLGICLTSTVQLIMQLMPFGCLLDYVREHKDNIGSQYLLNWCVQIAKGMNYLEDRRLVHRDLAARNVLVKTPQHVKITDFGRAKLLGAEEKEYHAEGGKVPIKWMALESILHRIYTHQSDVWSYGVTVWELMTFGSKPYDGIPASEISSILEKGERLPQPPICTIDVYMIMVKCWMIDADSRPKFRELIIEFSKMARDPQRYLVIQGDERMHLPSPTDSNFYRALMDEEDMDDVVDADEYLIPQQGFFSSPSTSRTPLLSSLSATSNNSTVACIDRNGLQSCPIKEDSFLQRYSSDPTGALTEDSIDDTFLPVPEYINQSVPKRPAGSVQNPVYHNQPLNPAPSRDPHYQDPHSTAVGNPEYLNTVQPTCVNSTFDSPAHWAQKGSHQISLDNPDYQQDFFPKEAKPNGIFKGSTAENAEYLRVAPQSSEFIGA
EGFR mutant L858R Ba/F3 cells, sequence (P00533 whole entry L858R): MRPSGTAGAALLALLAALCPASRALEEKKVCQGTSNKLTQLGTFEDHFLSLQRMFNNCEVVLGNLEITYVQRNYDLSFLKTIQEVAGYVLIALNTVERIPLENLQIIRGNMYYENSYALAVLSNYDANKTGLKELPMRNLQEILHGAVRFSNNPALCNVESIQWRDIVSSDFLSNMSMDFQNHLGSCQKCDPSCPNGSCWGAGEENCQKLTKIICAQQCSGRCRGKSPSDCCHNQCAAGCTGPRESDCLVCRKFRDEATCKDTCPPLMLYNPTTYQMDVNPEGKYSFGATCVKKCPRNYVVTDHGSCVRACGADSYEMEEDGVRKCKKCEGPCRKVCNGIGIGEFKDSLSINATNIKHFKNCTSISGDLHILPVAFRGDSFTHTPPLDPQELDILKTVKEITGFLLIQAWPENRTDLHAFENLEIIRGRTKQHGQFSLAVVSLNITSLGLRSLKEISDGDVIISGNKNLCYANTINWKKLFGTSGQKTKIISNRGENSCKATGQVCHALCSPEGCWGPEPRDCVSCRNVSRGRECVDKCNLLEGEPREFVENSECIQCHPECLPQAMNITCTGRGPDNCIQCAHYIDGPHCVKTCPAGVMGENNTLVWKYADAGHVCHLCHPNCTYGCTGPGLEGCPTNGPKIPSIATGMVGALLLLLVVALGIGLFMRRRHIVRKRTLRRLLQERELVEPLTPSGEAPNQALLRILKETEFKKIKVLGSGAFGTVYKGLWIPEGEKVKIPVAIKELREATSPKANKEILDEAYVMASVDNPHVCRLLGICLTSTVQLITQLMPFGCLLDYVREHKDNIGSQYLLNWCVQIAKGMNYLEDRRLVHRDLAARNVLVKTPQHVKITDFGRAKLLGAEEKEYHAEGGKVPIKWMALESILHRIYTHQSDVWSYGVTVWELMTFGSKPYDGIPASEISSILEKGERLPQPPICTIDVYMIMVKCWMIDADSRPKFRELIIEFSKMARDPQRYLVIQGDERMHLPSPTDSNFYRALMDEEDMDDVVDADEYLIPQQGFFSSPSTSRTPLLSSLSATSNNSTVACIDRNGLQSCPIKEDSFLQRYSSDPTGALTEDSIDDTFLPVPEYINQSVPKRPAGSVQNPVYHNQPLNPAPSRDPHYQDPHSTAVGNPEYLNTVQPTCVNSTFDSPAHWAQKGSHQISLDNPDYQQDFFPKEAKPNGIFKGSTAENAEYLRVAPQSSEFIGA
EGFR L858R, sequence (P00533 25-1210 L858R): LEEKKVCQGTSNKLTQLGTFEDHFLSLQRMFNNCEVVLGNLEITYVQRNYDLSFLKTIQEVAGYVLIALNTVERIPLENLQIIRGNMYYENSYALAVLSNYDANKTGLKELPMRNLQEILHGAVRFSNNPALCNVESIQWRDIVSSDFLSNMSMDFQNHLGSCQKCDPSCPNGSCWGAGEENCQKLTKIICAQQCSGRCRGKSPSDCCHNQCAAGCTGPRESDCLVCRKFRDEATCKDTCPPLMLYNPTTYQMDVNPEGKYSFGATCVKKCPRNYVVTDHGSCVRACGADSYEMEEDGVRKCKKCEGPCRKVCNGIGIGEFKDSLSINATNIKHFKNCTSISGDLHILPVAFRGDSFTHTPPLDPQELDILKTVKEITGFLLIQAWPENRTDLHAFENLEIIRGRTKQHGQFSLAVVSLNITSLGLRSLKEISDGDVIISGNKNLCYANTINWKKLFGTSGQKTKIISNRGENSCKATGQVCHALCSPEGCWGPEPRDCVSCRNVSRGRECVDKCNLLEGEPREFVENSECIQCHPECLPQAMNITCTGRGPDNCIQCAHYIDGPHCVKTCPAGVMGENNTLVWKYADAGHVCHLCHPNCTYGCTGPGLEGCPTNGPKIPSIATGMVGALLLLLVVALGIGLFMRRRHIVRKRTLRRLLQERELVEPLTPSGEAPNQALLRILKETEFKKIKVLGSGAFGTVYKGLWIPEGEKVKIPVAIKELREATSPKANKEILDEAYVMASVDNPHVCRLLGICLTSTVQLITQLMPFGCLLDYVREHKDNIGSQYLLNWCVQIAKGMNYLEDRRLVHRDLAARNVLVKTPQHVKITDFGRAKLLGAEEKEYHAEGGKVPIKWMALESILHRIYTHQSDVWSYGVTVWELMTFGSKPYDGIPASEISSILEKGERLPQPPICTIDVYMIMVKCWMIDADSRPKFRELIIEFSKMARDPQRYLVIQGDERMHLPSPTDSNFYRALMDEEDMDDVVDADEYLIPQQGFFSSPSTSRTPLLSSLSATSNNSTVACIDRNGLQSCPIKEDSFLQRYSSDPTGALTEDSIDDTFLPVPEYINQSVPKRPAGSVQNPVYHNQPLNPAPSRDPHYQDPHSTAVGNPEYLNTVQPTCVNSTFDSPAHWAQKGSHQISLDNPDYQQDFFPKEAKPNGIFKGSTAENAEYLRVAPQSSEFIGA

| Structure (SMILES) | IC50 (EGFR L858R/T790M) [nM] | IC50 (EGFR L858R) [nM] | GI50 [1] [nM] | GI50 [2] [nM] |
| --- | --- | --- | --- | --- |
| CN1CCC(c2ccc(-c3ccc4c(c3)CC(=O)N(C(c3nc5ccccc5[nH]3)c3cc(F)ccc3O)C4)cc2)CC1 (stereo not drawn) [Compound 018, 2-[1H-benzimidazol-2-yl-(5-fluoro-2-hydroxy-phenyl)methyl]-6-[4-(1-methyl-4-piperidyl)phenyl]-1,4-dihydroisoquinolin-3-one] | 8 | 6 | 480 | 530 |
| CN1CCC(c2ccc(-c3cc4ccn(C(c5ccccc5)c5nc6ccccc6[nH]5)c(=O)c4s3)cc2)CC1 (stereo not drawn) [Compound 008, 6-[1H-benzimidazol-2-yl(phenyl)methyl]-2-[4-(1-methyl-4-piperidyl)phenyl]thieno[2,3-c]pyridin-7-one;hydrochloride] | 29 | 27 | 1670 | 1870 |
| CN1CCC(c2ccc(-c3cc4c(s3)CN(C(c3nc5ccccc5[nH]3)c3cc(F)ccc3O)C4=O)cc2)CC1 (stereo not drawn) [Compound 013, 5-[1H-Benzimidazol-2-Yl-(5-Fluoro-2-Hydroxy-Phenyl)Methyl]-2-[4-(1-Methyl-4-Piperidyl)Phenyl]-6H-Thieno[2,3-c]Pyrrol-4-One;Dihydrochloride] | 14 | 9 | 750 | 1010 |
| CN1CCC(c2ccc(-c3cc4c(s3)C(=O)N(C(c3nc5ccccc5[nH]3)c3cc(F)ccc3O)C4)cc2)CC1 (stereo not drawn) [Compound 014, 5-[1H-benzimidazol-2-yl-(5-fluoro-2-hydroxy-phenyl)methyl]-2-[4-(1-methyl-4-piperidyl)phenyl]-4H-thieno[2,3-c]pyrrol-6-one;dihydrochloride] | 21 | 21 | 1180 | 1330 |

Stronger by IC50 (EGFR L858R/T790M), values ahead:

| IC50 (EGFR L858R/T790M) [nM] | IC50 (EGFR L858R) [nM] | GI50 [1] [nM] | GI50 [2] [nM] | Structure (SMILES) |
| --- | --- | --- | --- | --- |
| 0.6 | 2 | 20 | 70 | CN1CCC(c2ccc(-c3cc4ccn(C(c5nc6ccccc6[nH]5)c5cc(F)ccc5O)c(=O)c4s3)cc2)CC1 (stereo not drawn) [Compound 009, 6-[1H-benzimidazol-2-yl-(5-fluoro-2-hydroxy-phenyl)methyl]-2-[4-(1-methyl-4-piperidyl)phenyl]thieno[2,3-c]pyridin-7-one;dihydrochloride] |
| 5 | 10 | 840 | 1700 | CN1CCC(c2ccc(-c3cc4c(s3)CCN(C(c3nc5ccccc5[nH]3)c3cc(F)ccc3O)C4=O)cc2)CC1 (stereo not drawn) [Compound 012, 5-[1H-Benzimidazol-2-Yl-(5-Fluoro-2-Hydroxy-Phenyl)Methyl]-2-[4-(1-Methyl-4-Piperidyl)Phenyl]-6,7-Dihydrothieno[3,2-c]Pyridin-4-One;Dihydrochloride] |
